By EC50 is commonly meant the concentration at which the effect is half-maximal.

Experimental findings from patent publication US9499550B2 (BRISTOL-MYERS SQUIBB COMPANY, priority 2012, dated 2016) are described below.

Bounds are passed on as bounds.

Experiment [1] relates to HCV genotype 1a (H77 strain) replicon in HUH-7 cells. The experiment can be described thus: HCV replicon luciferase reporter assay, genotype 1a. Format: cell-based. To be noted: Hepatitis C virus, Huh-7, 72 h, HCV genotype 1a replicon luciferase assay, 3 days incubation, range class, read-out: LE_1a (EC50, range). Summed up: (§1)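 Replicon inhibition for both genotypes was measured as Renilla luciferase signal (EnduRen, 7.5 μM final, 2 h) after 3-day, 37° C exposure of replicon-bearing HUH-7 cells in 4% FCS DMEM, 0.5% DMSO. The 1b construct carries S1179I; the 1a H77 construct carries P1496L and S2204I. Twenty-point, 3-fold dilutions were fitted four-parametrically for EC50, and CC50 was taken from multiplexed Cell Titer-Blue.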

For experiment [2], the system named is HCV genotype 1b (Con1) replicon in HUH-7 cells. Briefly: HCV replicon luciferase reporter assay, genotype 1b. Format: cell-based. To be noted: Hepatitis C virus, Huh-7, 72 h, HCV genotype 1b replicon luciferase assay, 3 days incubation, range class, read-out: LE_1b (EC50, range). Summed up:
as §1
On the technique in general: Replicon systems follow genome replication, usually without infectious particles.

Take `COc1ccc2c(O[C@@H]3C[C@H]4C(=O)N[C@]5(C(=O)NS(=O)(=O)C6CC6)C[C@H]5/C=C\CC[C@H](C)C[C@@H](C)[C@H](NC(=O)O[C@@H]5C[C@@H]6C[C@@H]6C5)C(=O)N4C3)nc(-c3ccc(OC)c(F)c3)cc2c1` [Compound 3057, (1R,3r,5S)-bicyclo[3.1.0]hexan-3-yl((2R,6S,7R,9S,13aS,14aR,16aS,Z)-14a-((cyclopropylsulfonyl)carbamoyl)-2-((3-(3-fluoro-4-methoxyphenyl)-6-methoxyisoquinolin-1-yl)oxy)-7,9-dimethyl-5,16-dioxo-1,2,3,5,6,7,8,9,10,11,13a,14,14a,15,16,16a-hexadecahydrocyclopropa[e]pyrrolo[1,2-a][1,4]diazacyclopentadecin-6-yl)carbamate]: the EC50 in experiment [1] and in experiment [2] was < 5.46 nM in each case.

With `COc1ccc2c(O[C@@H]3C[C@H]4C(=O)N[C@]5(C(=O)NS(=O)(=O)C6CC6)C[C@H]5/C=C\CC[C@@H](C)C[C@@H](C)[C@H](NC(=O)O[C@@H]5C[C@@H]6C[C@@H]6C5)C(=O)N4C3)nc(-c3ccc(OC)c(F)c3)cc2c1` [Compound 3058, (1R,3r,5S)-bicyclo[3.1.0]hexan-3-yl((2R,6S,7R,9R,13aS,14aR,16aS,Z)-14a-((cyclopropylsulfonyl)carbamoyl)-2-((3-(3-fluoro-4-methoxyphenyl)-6-methoxyisoquinolin-1-yl)oxy)-7,9-dimethyl-5,16-dioxo-1,2,3,5,6,7,8,9,10,11,13a,14,14a,15,16,16a-hexadecahydrocyclopropa[e]pyrrolo[1,2-a][1,4]diazacyclopentadecin-6-yl)carbamate], the concentration for a half-maximal effect (EC50) in experiment [1] and in experiment [2] was < 5.46 nM throughout.

With `COc1ccc2c(O[C@@H]3C[C@H]4C(=O)N[C@]5(C(=O)NS(=O)(=O)C6CC6)C[C@H]5/C=C\CC[C@H](C)C[C@@H](C)[C@H](NC(=O)OC(C)(C)C)C(=O)N4C3)nc(-c3ccc(OC(C)C)c(F)c3)cc2c1` [Compound 3059, tert-butyl ((2R,6S,7R,9S,13aS,14aR,16aS,Z)-14a-((cyclopropylsulfonyl)carbamoyl)-2-((3-(3-fluoro-4-isopropoxyphenyl)-6-methoxyisoquinolin-1-yl)oxy)-7,9-dimethyl-5,16-dioxo-1,2,3,5,6,7,8,9,10,11,13a,14,14a,15,16,16a-hexadecahydrocyclopropa[e]pyrrolo[1,2-a][1,4]diazacyclopentadecin-6-yl)carbamate], the EC50 in experiment [1] was 4.82 to 103 nM; in experiment [2] it was < 5.46 nM.

For `COc1ccc2c(O[C@@H]3C[C@H]4C(=O)N[C@]5(C(=O)NS(=O)(=O)C6CC6)C[C@H]5/C=C\CC[C@@H](C)C[C@@H](C)[C@H](NC(=O)OC(C)(C)C)C(=O)N4C3)nc(-c3ccc(OC(C)C)c(F)c3)cc2c1` [Compound 3060, tert-butyl ((2R,6S,7R,9R,13aS,14aR,16aS,Z)-14a-((cyclopropylsulfonyl)carbamoyl)-2-((3-(3-fluoro-4-isopropoxyphenyl)-6-methoxyisoquinolin-1-yl)oxy)-7,9-dimethyl-5,16-dioxo-1,2,3,5,6,7,8,9,10,11,13a,14,14a,15,16,16a-hexadecahydrocyclopropa[e]pyrrolo[1,2-a][1,4]diazacyclopentadecin-6-yl)carbamate], the 50% effective concentration (EC50) in experiment [1] and in experiment [2] was < 5.46 nM throughout.

Turning to `COc1ccc2c(O[C@@H]3C[C@H]4C(=O)N[C@]5(C(=O)NS(=O)(=O)C6(C)CC6)C[C@H]5/C=C\CC[C@H](C)C[C@@H](C)[C@H](NC(=O)OC(C)(C)C)C(=O)N4C3)nc(-c3ccc(OC(C)C)c(F)c3)cc2c1` [Compound 3061, tert-butyl ((2R,6S,7R,9S,13aS,14aR,16aS,Z)-2-((3-(3-fluoro-4-isopropoxyphenyl)-6-methoxyisoquinolin-1-yl)oxy)-7,9-dimethyl-14a-(((1-methylcyclopropyl)sulfonyl)carbamoyl)-5,16-dioxo-1,2,3,5,6,7,8,9,10,11,13a,14,14a,15,16,16a-hexadecahydrocyclopropa[e]pyrrolo[1,2-a][1,4]diazacyclopentadecin-6-yl)carbamate], the EC50 in experiment [1] is 4.82 to 103 nM; in experiment [2] it was < 5.46 nM.

For the compound `COc1ccc2c(O[C@@H]3C[C@H]4C(=O)N[C@]5(C(=O)NS(=O)(=O)C6(C)CC6)C[C@H]5/C=C\CC[C@@H](C)C[C@@H](C)[C@H](NC(=O)OC(C)(C)C)C(=O)N4C3)nc(-c3ccc(OC(C)C)c(F)c3)cc2c1` [Compound 3062, tert-butyl ((2R,6S,7R,9R,13aS,14aR,16aS,Z)-2-((3-(3-fluoro-4-isopropoxyphenyl)-6-methoxyisoquinolin-1-yl)oxy)-7,9-dimethyl-14a-(((1-methylcyclopropyl)sulfonyl)carbamoyl)-5,16-dioxo-1,2,3,5,6,7,8,9,10,11,13a,14,14a,15,16,16a-hexadecahydrocyclopropa[e]pyrrolo[1,2-a][1,4]diazacyclopentadecin-6-yl)carbamate], the EC50 in experiment [1] and in experiment [2] was < 5.46 nM in each case.

As to `COc1ccc2c(O[C@@H]3C[C@H]4C(=O)N[C@]5(C(=O)NS(=O)(=O)C6CC6)C[C@H]5/C=C\CC[C@H](C)C[C@@H](C)[C@H](NC(=O)OC(C)(C)C(F)(F)F)C(=O)N4C3)nc(-c3ccc(OC(C)C)c(F)c3)cc2c1` [Compound 3063, 1,1,1-trifluoro-2-methylpropan-2-yl((2R,6S,7R,9S,13aS,14aR,16aS,Z)-14a-((cyclopropylsulfonyl)carbamoyl)-2-((3-(3-fluoro-4-isopropoxyphenyl)-6-methoxyisoquinolin-1-yl)oxy)-7,9-dimethyl-5,16-dioxo-1,2,3,5,6,7,8,9,10,11,13a,14,14a,15,16,16a-hexadecahydrocyclopropa[e]pyrrolo[1,2-a][1,4]diazacyclopentadecin-6-yl)carbamate], the EC50 in experiment [1] is 4.82 to 103 nM; in experiment [2] it was < 5.46 nM.

Turning to `COc1ccc2c(O[C@@H]3C[C@H]4C(=O)N[C@]5(C(=O)NS(=O)(=O)C6CC6)C[C@H]5/C=C\CC[C@@H](C)C[C@@H](C)[C@H](NC(=O)OC(C)(C)C(F)(F)F)C(=O)N4C3)nc(-c3ccc(OC(C)C)c(F)c3)cc2c1` [Compound 3064, 1,1,1-trifluoro-2-methylpropan-2-yl((2R,6S,7R,9R,13aS,14aR,16aS,Z)-14a-((cyclopropylsulfonyl)carbamoyl)-2-((3-(3-fluoro-4-isopropoxyphenyl)-6-methoxyisoquinolin-1-yl)oxy)-7,9-dimethyl-5,16-dioxo-1,2,3,5,6,7,8,9,10,11,13a,14,14a,15,16,16a-hexadecahydrocyclopropa[e]pyrrolo[1,2-a][1,4]diazacyclopentadecin-6-yl)carbamate], the EC50 in experiment [1] and in experiment [2] was < 5.46 nM each time.

With `COc1ccc2c(O[C@@H]3C[C@H]4C(=O)N[C@]5(C(=O)NS(=O)(=O)C6CC6)C[C@H]5/C=C\CC[C@H](C)C[C@@H](C)[C@H](NC(=O)OCC5(C)CC5)C(=O)N4C3)nc(-c3ccc(OC(C)C)c(F)c3)cc2c1` [Compound 3065, (1-methylcyclopropyl)methyl ((2R,6S,7R,9S,13aS,14aR,16aS,Z)-14a-((cyclopropylsulfonyl)carbamoyl)-2-((3-(3-fluoro-4-isopropoxyphenyl)-6-methoxyisoquinolin-1-yl)oxy)-7,9-dimethyl-5,16-dioxo-1,2,3,5,6,7,8,9,10,11,13a,14,14a,15,16,16a-hexadecahydrocyclopropa[e]pyrrolo[1,2-a][1,4]diazacyclopentadecin-6-yl)carbamate], the EC50 is 4.82 to 103 nM in experiment [1] and < 5.46 nM in experiment [2].
